Test results reported in ChEMBL document CHEMBL2331141, “Synthesis, characterization, screening and docking analysis of 4-anilinoquinazoline derivatives as tyrosine kinase inhibitors” (Eur J Med Chem, 2013).

Columns and labels:
[1] = target: T1, Epidermal growth factor receptor (Homo sapiens, UniProt P00533); assay: Inhibition of EGFR (unknown origin)
[2] = target: T1, Epidermal growth factor receptor; assay: Inhibition of EGFR (unknown origin) using biotinylated-PTP1B (Tyr66) as substrate incubated for 5 mins prior to substrate addition measured after 1 hr by ELISA

T1 sequence (P00533 whole entry): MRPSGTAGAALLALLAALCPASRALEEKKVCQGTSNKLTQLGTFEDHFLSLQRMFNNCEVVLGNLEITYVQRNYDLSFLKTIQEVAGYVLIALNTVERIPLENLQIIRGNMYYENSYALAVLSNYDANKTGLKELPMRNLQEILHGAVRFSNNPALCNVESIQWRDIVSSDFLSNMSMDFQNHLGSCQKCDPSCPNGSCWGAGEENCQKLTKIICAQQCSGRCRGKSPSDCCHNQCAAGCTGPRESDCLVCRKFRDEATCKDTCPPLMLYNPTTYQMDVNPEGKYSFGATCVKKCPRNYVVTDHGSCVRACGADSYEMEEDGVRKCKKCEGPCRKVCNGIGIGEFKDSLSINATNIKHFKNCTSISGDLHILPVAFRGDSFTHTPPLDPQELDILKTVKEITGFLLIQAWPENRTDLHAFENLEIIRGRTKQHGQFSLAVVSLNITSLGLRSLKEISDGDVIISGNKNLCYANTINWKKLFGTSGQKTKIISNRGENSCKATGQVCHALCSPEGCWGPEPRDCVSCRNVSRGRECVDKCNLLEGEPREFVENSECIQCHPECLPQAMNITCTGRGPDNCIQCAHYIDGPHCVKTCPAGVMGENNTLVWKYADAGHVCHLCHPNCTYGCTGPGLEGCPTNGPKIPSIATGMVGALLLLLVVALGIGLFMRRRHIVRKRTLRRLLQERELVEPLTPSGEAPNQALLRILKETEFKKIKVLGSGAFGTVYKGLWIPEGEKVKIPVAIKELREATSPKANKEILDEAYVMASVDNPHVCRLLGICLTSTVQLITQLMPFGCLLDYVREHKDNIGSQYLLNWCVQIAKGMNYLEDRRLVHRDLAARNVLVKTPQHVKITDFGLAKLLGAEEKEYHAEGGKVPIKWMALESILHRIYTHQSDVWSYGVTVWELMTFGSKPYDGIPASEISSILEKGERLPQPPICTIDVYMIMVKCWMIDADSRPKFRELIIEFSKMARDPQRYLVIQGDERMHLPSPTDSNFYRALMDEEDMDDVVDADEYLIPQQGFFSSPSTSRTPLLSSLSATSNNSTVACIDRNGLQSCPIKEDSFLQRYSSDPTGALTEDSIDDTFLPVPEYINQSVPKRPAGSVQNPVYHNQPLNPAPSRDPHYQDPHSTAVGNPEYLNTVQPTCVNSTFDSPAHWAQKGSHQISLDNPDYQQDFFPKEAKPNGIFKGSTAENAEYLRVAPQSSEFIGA

IC50 [1] [nM] | IC50 [2] [nM] | Structure (SMILES)
4700 | – | COc1cc2ncnc(Nc3ccc(C(C)(F)F)cc3)c2cc1OC
10000 | – | COc1cc2ncnc(Nc3ccccc3C(F)(F)F)c2cc1OC
– | 127 | COc1cc2ncnc(Nc3cccc(-c4ccccc4)c3)c2cc1OC
– | 413 | COc1cc2ncnc(Nc3cccc(C#N)c3)c2cc1OC
– | 63.4 | COc1cc2ncnc(Nc3ccc(F)c(Cl)c3)c2cc1OCCO
– | 12.1 | COc1cc2ncnc(Nc3ccc(F)c(Cl)c3)c2cc1OCCNCCN
– | 13.6 | COc1cc2ncnc(Nc3ccc(F)c(Cl)c3)c2cc1OCCCNCCN
– | 127 | COc1cc2ncnc(Nc3cccc(SC)c3)c2cc1OC
15 | – | COc1cc2ncnc(Nc3cccc(C(F)(F)F)c3)c2cc1OC
– | 201 | COc1cc2ncnc(Nc3ccccc3)c2cc1OC
